According to patent publication US20260242405A1, “N-DERIVATIZED SIALIC ACIDS AND RELATED SIALOSIDES” (THE REGENTS OF THE UNIVERSITY OF CALIFORNIA, priority 2023, published 2026):
Like-named read-outs stand apart in the source and are kept apart here.

Legend:
N1-BR18 = conditions: read-out: KD for the interaction of N1-BR18
H1N1/BR18 virus = conditions: virus in egg allantoic fluid, streptavidin plates or Dynabeads
[1] = test system: NAs from both IAVs and IBVs
Protocol: Enzyme-linked immunosorbent assays (ELISA). These assays were carried out in duplicates in 384-well NeutrAvidin-coated plates. The wells were washed with 3×80 μL of washing buffer (1× PBS buffer with 0.05% tween-20) and then were incubated with biotinylated glycans (10 μM, 20 μL) at 4° C. for overnight. Then the wells were washed with 3×80 μL of washing buffer and blocked with 60 μL of blocking buffer (1× PBS buffer with 0.1% BSA). The wells were then washed with 3×80 μL of washing buffer, and NA (10 μg/mL, 20 μL) was added to each well. The samples were incubated at 4° C. for 30 minutes. The wells were then washed with 3×80 μL of washing buffer, and HRP-conjugated anti-His or anti-Strep antibodies (0.1 μg/mL or with proper dilution using 1× PBS buffer with 0.1% BSA, 20 μL) were added. The samples were incubated at 4° C. for 30 minutes.

[2] = molecular target: NB-Aus21 (IBV neuraminidase) (Influenza B virus, UniProt A0A1X9RX69); experiment: biochemical; design: species or system influenza B virus B/Austria/1359417/2021; conditions: inhibitor 8.0 μM
[3] = molecular target: T1, hNEU2 (human cytosolic sialidase) (Homo sapiens, UniProt Q9Y3R4); experiment: Fluorescence-based inhibition assay (substrate Neu5Acα2-3GalβMU, β-galactosidase coupled); assay type: biochemical; conditions: inhibitor 8.0 μM
T1 construct: made in house

[4] = test system: influenza NAs tested (N1-Vic19, N1-BR18, N2-Dar21, N2-Kan17, NB-NB-Aus21, NB-Phu13); experiment: Fluorescence-based inhibition assay, statements on the influenza NA panel; assay type: biochemical, influenza A and B viruses; conditions: for inhibition efficiency relative to 4NH2Neu5Ac2en (3), fold better: from IC50 values; for inhibitory activities against the influenza NAs tested (span over six NAs): inhibitor 8.0 μM, substrate Neu5Acα2-3GalβMU 8.0 μM; for inhibitory activity against influenza NAs, in words: Example 3 inhibition and IC50 assays
[5] = molecular target: NB-Phu13 (IBV neuraminidase) (Influenza B virus, UniProt A0A1S5RAG6); experiment: Fluorescence-based inhibition assay (substrate Neu5Acα2-3GalβMU, β-galactosidase coupled); assay type: biochemical, influenza B virus B/Phuket/3073/2013; conditions: read-out: percentage inhibition against NB-Phu13
[6] = molecular target: N2-Dar21 (IAV neuraminidase) (Influenza A virus, UniProt A0A193ACB1); experiment: as above; assay type: biochemical, influenza A virus A/Darwin/9/2021 (H3N2); conditions: read-out: percentage inhibition against N2-Dar21
[7] = molecular target: T2, PmST1 WT (sialidase activity of α2-3-sialyltransferase 1 in the presence of CMP) (Pasteurella multocida, UniProt Q15KI8); experiment: biochemical; conditions: read-out: percent inhibition against PmST1 WT
T2 construct: made in house

SpNanA (sialidase) = molecular target: T3, SpNanA (sialidase) (Streptococcus pneumoniae, UniProt P62575); experiment: Fluorescence-based inhibition assay (substrate Neu5Acα2-3GalβMU, β-galactosidase coupled); assay type: biochemical; conditions: read-out: percent inhibition against SpNanA
T3 construct: made in house

[8] = molecular target: N1-BR18 (IAV neuraminidase) (Influenza A virus, UniProt A0A0X9QTS2); experiment: as above; assay type: biochemical, influenza A virus A/Brisbane/02/2018 (H1N1)
[9] = molecular target: N2-Kan17 (IAV neuraminidase) (Influenza A virus, UniProt A0A193ACB1); experiment: as above; assay type: biochemical, influenza A virus A/Kansas/14/2017 (H3N2); conditions: read-out: percentage inhibition against N2-Kan17
[10] = test system: N1-Vic19 (IAV neuraminidase); experiment: as above; assay type: biochemical, influenza A virus A/Victoria/2570/2019 (H1N1); conditions: inhibitor 8.0 μM; Example 3, Table 4
[11] = test system: human, bacterial, and influenza sialidases; experiment: High-throughput substrate specificity assay with sialyl GalβpNPs (A405 nm); assay type: biochemical, bacteria, influenza A and B viruses
[12] = substrate Neu5Acα2-3GalβMU 8.0 μM, Example 2, Table 2, read-out: Percentage inhibition against NB-Aus21 (IBV)
[13] = Example 3, Table 4, read-out: percentage inhibition against NB-NB-Aus21
[14] = substrate Neu5Acα2-3GalβMU 8.0 μM, Example 2, Table 2, read-out: Percentage inhibition against hNEU2
[15] = Table 5, read-out: percent inhibition against hNEU2
[16] = read-out: percentage inhibition against N1-BR18, inhibitor 8.0 μM, Example 3, Table 4
[17] = high-concentration enzyme conditions (10-fold, Vc sialidase 4-fold), 1 hour
[18] = high-concentration enzyme conditions, 14 hours
[19] = read-out: Percentage inhibition against N1-BR18 (IAV), inhibitor 8.0 μM, substrate Neu5Acα2-3GalβMU 8.0 μM, Example 2, Table 2

T1 sequence (Q9Y3R4 whole entry): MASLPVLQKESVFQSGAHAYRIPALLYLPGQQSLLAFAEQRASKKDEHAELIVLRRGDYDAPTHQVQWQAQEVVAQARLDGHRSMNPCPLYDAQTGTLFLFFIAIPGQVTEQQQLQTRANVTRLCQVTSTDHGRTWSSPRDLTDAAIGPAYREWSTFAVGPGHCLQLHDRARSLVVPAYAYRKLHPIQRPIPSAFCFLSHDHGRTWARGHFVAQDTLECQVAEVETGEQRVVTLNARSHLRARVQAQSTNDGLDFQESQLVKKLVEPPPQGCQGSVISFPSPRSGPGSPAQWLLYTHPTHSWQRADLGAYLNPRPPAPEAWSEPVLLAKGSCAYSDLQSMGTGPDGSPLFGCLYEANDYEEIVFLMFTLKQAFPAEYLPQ

“4-Guanidino-Neu5Acα2-3LacNAcβPorNH-PEG4-Biotin [Compound 10d]” was tested. Which Kd (N1-BR18) did it give?
Its Kd is 45.5 nM.

And the “detection and retention of H1N1/BR18 virions by immobilized ligand” value (from here on “detection and retention”) (H1N1/BR18 virus; listed as 4-Guanidino-Neu5Acα2-3LacNAcβProNH-PEG4-Biotin (10d))?
The value was “effective affinity ligand for detecting and purifying H1N1 virus”.

What about the “detection and retention” value (H1N1/BR18 virus; listed as 4-guanidino-Neu5Acα2-3LacNAcβProNH-PEG4-Biotin (10d)) of the same compound?
The value was “efficient in retaining H1N1/BR18 virions”.

What about the “binding of influenza NAs to immobilized sialoside (BLI), in words” value (from here on “binding of influenza NAs”) (influenza NAs) of the same compound?
Its value is “significantly stronger binders than other sialosides”.

Which “suitability as affinity ligand for immobilizing NAs (ELISA)” value (shortened to “suitability as affinity ligand”) [1] does the source give for “4N3Neu5Acα2-3GalβProNH-PEG4-Biotin [Compound 11c]” here?
The value was “not suitable affinity ligands”.

“4N3Neu5Acα2-3LacNAcβProNH-PEG4-Biotin [Compound 11d]” was tested. Which “suitability as affinity ligand” value [1] did it give?
Its value is “not suitable affinity ligands”.

What about the “binding of influenza NAs” value (influenza NAs) of the same compound?
The value was “Weak binding of N1-Vic19, N2-Dar21, and the IBV NAs”.

How did the “suitability as affinity ligand” value [1] turn out when “4NAcNeu5Acα2-3GalβProNH-PEG4-Biotin [Compound 12c]” was run?
The value was “not suitable affinity ligands”.

Which results are given for “4NAcNeu5Acα2-3LacNAcβProNH-PEG4-Biotin [Compound 12d]”?
suitability as affinity ligand for immobilizing NAs (ELISA) [1]: not suitable affinity ligands; binding of influenza NAs to immobilized sialoside (BLI), in words (influenza NAs): weak binding of N1-Vic19 and N2-Dar21

Which “binding of influenza NAs” value (influenza NAs) does the source give for “4NH2Neu5Acα2-3LacNAcβPorNH-PEG4-Biotin [Compound 9d]” here?
The value was “significantly stronger binders than other sialosides”.

Which results are given for `CC(=O)N[C@@H]1C(NC(=N)N)C[C@](OC2C(O)[C@H](Oc3ccc([N+](=O)[O-])cc3)OC(CO)[C@@H]2O)(C(=O)O)OC1[C@H](O)[C@H](O)CO` (stereo partly shown) [4-Guanidino-Neu5Acα2-3GalβpNP]?
inhibition at 8 µM [2, 12]: 86%; inhibition at 8 µM [2, 13]: 84.2%; inhibition at 8 µM [3, 14]: 0%; inhibition at 8 µM [3, 15]: 0%; inhibition efficiency relative to 4NH2Neu5Ac2en (3), fold better ([4]; against N1-Vic19 and N1-BR18): about 4 fold; inhibition efficiency relative to 4NH2Neu5Ac2en (3), fold better ([4]; against N2-Kan17 and N2-Dar21): about 10 fold; inhibitory activities against the influenza NAs tested (span over six NAs) [4]: 80-98%; inhibition at 8 µM [5]: 80.1%; inhibition at 8 µM [6]: 97%; inhibition at 8 µM [7]: 26.1 ± 0.1%; inhibition at 8 µM (SpNanA (sialidase)): 0.2 ± 0.7%; inhibition at 8 µM [8, 16]: 97.9%; inhibition at 8 µM [9]: 94.9%; percentage inhibition against N1-Vic19 [10]: 98.2%; cleavage by sialidases [11, 17]: very poor substrates for the influenza NAs tested; cleavage by sialidases [11, 18]: selectively by influenza virus NAs

How did the inhibition at 8 µM [2, 12] turn out when `CC(=O)N[C@H]1[C@H]([C@H](O)[C@H](O)CO)O[C@@](OC[C@H]2O[C@@H](Oc3ccc([N+](=O)[O-])cc3)[C@H](O)[C@@H](O)[C@H]2O)(C(=O)O)C[C@@H]1NC(=N)N` [4-Guanidino-Neu5Acα2-6GalβpNP] was run?
Its inhibition at 8 µM is 69%.

And the inhibition at 8 µM [2, 13]?
Its inhibition at 8 µM is 66.6%.

And the inhibition at 8 µM [3, 14]?
The inhibition at 8 µM was 0%.

What about the inhibition at 8 µM [3, 15] of the same compound?
The inhibition at 8 µM was 0%.

And the “inhibitory activity against influenza NAs, in words” value [4]?
Its value is “generally a weaker NA inhibitor than its α2-3-sialyl linked counterpart”.

What about the “inhibitory activities against the influenza NAs tested (span over six NAs)” value [4] of the same compound?
Its value is 67-93%.

And the inhibition at 8 µM [5]?
Its inhibition at 8 µM is 78.9%.

And the inhibition at 8 µM [6]?
Its inhibition at 8 µM is 81.5%.

What about the inhibition at 8 µM [7] of the same compound?
The inhibition at 8 µM was 31.7 ± 13.7%.

What about the inhibition at 8 µM (SpNanA (sialidase)) of the same compound?
Its inhibition at 8 µM is 6.4 ± 0.3%.

And the inhibition at 8 µM [8, 19]?
Its inhibition at 8 µM is 90%.

What about the inhibition at 8 µM [8, 16] of the same compound?
Its inhibition at 8 µM is 92.8%.

And the inhibition at 8 µM [9]?
Its inhibition at 8 µM is 78%.

What about the “percentage inhibition against N1-Vic19” value [10] of the same compound?
The value was 93.1%.

And the cleavage by sialidases [11, 17]?
Its cleavage by sialidases is “very poor substrates for the influenza NAs tested”.

What about the cleavage by sialidases [11, 18] of the same compound?
The cleavage by sialidases was “selectively by influenza virus NAs”.

How did the inhibition at 8 µM [2, 12] turn out when `CC(=O)N[C@@H]1C(N)C[C@](OCC2O[C@@H](Oc3ccc([N+](=O)[O-])cc3)C(O)C(O)[C@H]2O)(C(=O)O)OC1[C@H](O)[C@H](O)CO` (stereo partly shown) [4NH2Neu5Acα2-6GalβpNP] was run?
Its inhibition at 8 µM is 36%.

What about the inhibition at 8 µM [2, 13] of the same compound?
The inhibition at 8 µM was 13.5%.

And the inhibition at 8 µM [3, 14]?
Its inhibition at 8 µM is 0%.

What about the inhibition at 8 µM [3, 15] of the same compound?
The inhibition at 8 µM was 0%.

What about the “inhibitory activity against influenza NAs, in words” value [4] of the same compound?
The value was “insignificant against the N1 or N2 NAs tested”.

And the inhibition at 8 µM [5]?
Its inhibition at 8 µM is 9.8%.

What about the inhibition at 8 µM [6] of the same compound?
Its inhibition at 8 µM is 2.9%.

And the inhibition at 8 µM [7]?
The inhibition at 8 µM was 35.7 ± 19.9%.

What about the inhibition at 8 µM (SpNanA (sialidase)) of the same compound?
Its inhibition at 8 µM is 4.4 ± 9.6%.

And the inhibition at 8 µM [8, 19]?
Its inhibition at 8 µM is 15%.

And the inhibition at 8 µM [8, 16]?
The inhibition at 8 µM was 0.7%.

And the inhibition at 8 µM [9]?
The inhibition at 8 µM was 1.5%.

And the “percentage inhibition against N1-Vic19” value [10]?
Its value is 0.4%.

What about the cleavage by sialidases [11, 17] of the same compound?
Its cleavage by sialidases is “very poor substrates for the influenza NAs tested”.

And the cleavage by sialidases [11, 18]?
The cleavage by sialidases was “weakly cleaved off by both SpNanA and some influenza virus NAs”.

For “GalβProNH-PEG4-Biotin [GalβProNH-PEG4-Biotin (19), reference compound]”, which “suitability as affinity ligand” value [1] is on record?
The value was “not suitable affinity ligands”.

Which “suitability as affinity ligand” value [1] does the source give for “LacNAcβProNH-PEG4-Biotin [LacNAcβProNH-PEG4-Biotin (20), reference compound]” here?
Its value is “not suitable affinity ligands”.

And the “detection and retention” value (H1N1/BR18 virus)?
Its value is “did not retain influenza virions”.
